Consider 1 compound from US20150258168A1, “MODULATION OF PODOPLANIN MEDIATED PLATELET ACTIVATION” (OKLAHOMA MEDICAL RESEARCH FOUNDATION, priority 2012, published 2015).

The test system of this test is NE-Pdpn^−/− mice. Description: tMCAO-induced ischemia/reperfusion, brain bleeding and Evans blue leakage. Format: in vivo. The note with it: NE-Pdpn^−/− mice after tMCAO (1.5 hr ischemia and 24 hr reperfusion), 100 mg/kg body weight, i.p., n=2/group, pilot experiment. The protocol: FIG. 12. […] Gross images of cronal sections of NE− Pdpn^−/− brains. The mice (6-wks-old) were treated either with SEW2871 or DMSO (solvent of SEW2871) immediately after reperfusion. 24 hrs after the reperfusion, mice were intravenously injected with Evans blue, sacrificed and immediately perfused with saline and 4% PFA. Arrows show bleeding. Asterisks show leakage of Evans blue. R, right side (tMCAO side).
To determine the role of PDPN in astrocytes in protecting vascular integrity in the adult brain after injury, the inventor has have established a transient middle cerebral artery occlusion (tMCAO)-induced ischemia/reperfusion model that is widely accepted as a model for secondary hemorrhage in human patients with ischemic stroke (Fan et al., 2010). […] In addition, he will include Magnetic Resonance Imaging (MRI) to detect early hemorrhage, monitor its progress, and quantify bleeding volume (every 10 h). […]
The S1P receptor S1P1 is highly expressed on vascular endothelial cells (Kono et al., 2004). […] Cerebral vascular permeability/edema will be detected by intravenous injection of Evans blue and the wet/dry ratio of the brains. Vascular integrity will be analyzed by confocal imaging and/or TEM as described in C1.3.3. […]

Molecules are shown by their SMILES. Entries after “also recorded” stand apart in the source; their conditions may differ.

As to `FC(F)(F)c1cccc(-c2noc(-c3cc(-c4ccccc4)c(C(F)(F)F)s3)n2)c1` [SEW2871], the vascular leakage entry (Evans blue) is “ameliorated”. In addition, the brain bleeding result (100 mg/kg) is listed as “ameliorated; also recorded: ameliorates brain bleeding”.
